Activity calls are given as the source filed them.
Columns and labels:
Kallikrein-7 = Kallikrein-7 (Homo sapiens, UniProt P49862); test: Fluorescence Intensity-based biochemical primary high throughput dose response assay to identify activators of kallikrein-7 (K7) zymogen.
HEK293 [1] = test: cells; settings: Homo sapiens
[2] = molecular target: Disintegrin and metalloproteinase domain-containing protein 17 (Homo sapiens, UniProt P78536); test: ADAM17 protease inhibitors, dose response, counter-screen for ADAM10 exosite inhibitor project, biochemical, quenched FRET substrate (AID 743253)
[3] = ADAM10 inhibitors, peptide cleavage, dose response, biochemical, QFRET (AID 743254);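 further: ADAM10 enzyme with the DM2 quenched FRET peptide as substrate; EDANS fluorescence gain as the protease cuts the substrate; inhibitor potency against ADAM10 proteolytic activity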
HEK293 [4] = test: cells; settings: Homo sapiens; remark: listed apart in the source
Paired box protein Pax-8 = Paired box protein Pax-8 (Homo sapiens, UniProt Q06710); test: inhibitors of PAX8-driven TPO luciferase reporter, dose response, RMG-I cells, cherry-pick (AID 687027); type: functional, cell-based;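 further: luciferase reporter driven by Pax8 target thyroperoxidase promoter measured by SteadyGlo luminescence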
[5] = A2780 ovarian cancer cell cytotoxicity, dose response, cytotoxicity control, plate reader, dry powder samples (AID 743046); type: functional, cell-based
[6] = NIH:OVCAR-3 ovarian cancer cell cytotoxicity, dose response, PAX8 inhibitor project, plate reader, dry powder samples (AID 743044); type: functional, cell-based
[7] = non-specific cell cytotoxicity, dose response, cytotoxicity control for PAX8 inhibitor project, plate reader, dry powder samples (AID 743021); type: functional, cell-based
[8] = cytotoxicity in OVCAR8 ovarian cancer cells, dose response, PAX8 project, cell-based, plate reader, dry powder samples (AID 743197); type: functional; settings: OVCAR-8
[9] = Late-stage results from the probe development effort to identify antagonists of arginine vasopressin receptor 1a (AVPR1a): fluorescence-based cell-based dose response OXTR inhibition counterscreen assay.; type: functional
[10] = Late-stage results from the probe development effort to identify antagonists of arginine vasopressin receptor 1a (AVPR1a): fluorescence-based cell-based dose response AVPR1a inhibition assay.; type: functional
Vasopressin V1b receptor = Vasopressin V1b receptor (Homo sapiens, UniProt P47901); test: Late-stage results from the probe development effort to identify antagonists of arginine vasopressin receptor 1a (AVPR1a): fluorescence-based cell-based dose response AVPR1b inhibition counterscreen assay.; type: functional
Vasopressin V2 receptor = Vasopressin V2 receptor (Homo sapiens, UniProt P30518); test: Late-stage results from the probe development effort to identify antagonists of arginine vasopressin receptor 1a (AVPR1a): fluorescence-based cell-based dose response AVPR2 inhibition counterscreen assay.; type: functional
[11] = SNU-C1 cell viability reduction, dose response, CellTiter-Glo luminescence (AID 1117323); type: functional, cell-based
[12] = Concentration-dependent survival of SW480 colon cancer line, luminescence detection with CellTiter-Glo, half-maximal inhibitory concentration (AID 1117338); type: functional
[13] = HeLa 2N DNA content increase, dose response, cell-based, IC50 (AID 1117349); type: functional
[14] = HeLa 4N DNA content increase, dose response, cell-based, IC50 (AID 1117351); type: functional
[15] = cytotoxicity toward Colo320 cells – cell-based, CellTiter-Glo luminescence, IC50, dose response (AID 1117334); type: functional; settings: COLO 320
[16] = cytotoxicity toward HT-29 cells – cell-based, CellTiter-Glo luminescence, IC50, dose response (AID 1117330); type: functional
[17] = CellTiter-Glo luminescent dose response of DLD-1 viability loss (AID 1117352); type: functional
[18] = cytotoxicity toward HCT116 cells – cell-based, CellTiter-Glo luminescence, IC50, dose response (AID 1117332); type: functional; settings: HCT-116
[19] = RKO cell viability reduction, dose response, CellTiter-Glo luminescence (AID 1117322); type: functional

Sequence of Vasopressin V2 receptor (P30518 whole entry): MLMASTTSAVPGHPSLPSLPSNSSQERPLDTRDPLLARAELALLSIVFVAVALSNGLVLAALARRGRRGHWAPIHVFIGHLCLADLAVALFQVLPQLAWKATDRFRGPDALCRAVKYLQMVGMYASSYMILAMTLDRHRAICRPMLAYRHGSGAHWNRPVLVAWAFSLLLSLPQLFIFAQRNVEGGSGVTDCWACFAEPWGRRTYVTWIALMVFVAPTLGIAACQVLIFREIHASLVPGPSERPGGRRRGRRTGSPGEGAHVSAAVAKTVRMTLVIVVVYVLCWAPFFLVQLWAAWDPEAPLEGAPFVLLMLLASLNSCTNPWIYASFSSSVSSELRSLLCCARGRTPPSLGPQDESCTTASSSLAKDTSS
Sequence of Paired box protein Pax-8 (Q06710 whole entry): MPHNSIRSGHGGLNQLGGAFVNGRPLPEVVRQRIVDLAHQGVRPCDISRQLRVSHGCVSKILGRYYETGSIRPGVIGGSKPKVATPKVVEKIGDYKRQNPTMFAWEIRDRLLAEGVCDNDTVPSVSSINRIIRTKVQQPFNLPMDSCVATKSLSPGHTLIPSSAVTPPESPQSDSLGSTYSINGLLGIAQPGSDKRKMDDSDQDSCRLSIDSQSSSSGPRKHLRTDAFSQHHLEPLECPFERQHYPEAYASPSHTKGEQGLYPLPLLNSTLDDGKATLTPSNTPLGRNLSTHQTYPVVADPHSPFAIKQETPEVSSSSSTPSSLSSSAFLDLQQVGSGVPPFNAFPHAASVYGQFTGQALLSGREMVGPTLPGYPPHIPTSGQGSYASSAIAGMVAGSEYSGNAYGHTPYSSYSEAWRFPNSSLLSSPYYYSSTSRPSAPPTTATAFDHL
Sequence of Vasopressin V1b receptor (P47901 whole entry): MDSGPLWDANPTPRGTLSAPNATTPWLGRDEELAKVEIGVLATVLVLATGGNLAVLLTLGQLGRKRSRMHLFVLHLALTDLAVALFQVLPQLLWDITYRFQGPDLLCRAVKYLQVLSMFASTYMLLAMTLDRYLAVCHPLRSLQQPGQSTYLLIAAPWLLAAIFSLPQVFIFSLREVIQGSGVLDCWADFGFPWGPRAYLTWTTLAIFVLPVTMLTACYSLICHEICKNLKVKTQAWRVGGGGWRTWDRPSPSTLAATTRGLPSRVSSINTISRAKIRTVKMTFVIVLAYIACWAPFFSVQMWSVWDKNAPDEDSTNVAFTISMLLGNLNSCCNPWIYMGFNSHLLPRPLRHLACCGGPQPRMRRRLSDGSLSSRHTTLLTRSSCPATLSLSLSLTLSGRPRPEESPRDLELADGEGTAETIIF
Sequence of Kallikrein-7 (P49862 whole entry): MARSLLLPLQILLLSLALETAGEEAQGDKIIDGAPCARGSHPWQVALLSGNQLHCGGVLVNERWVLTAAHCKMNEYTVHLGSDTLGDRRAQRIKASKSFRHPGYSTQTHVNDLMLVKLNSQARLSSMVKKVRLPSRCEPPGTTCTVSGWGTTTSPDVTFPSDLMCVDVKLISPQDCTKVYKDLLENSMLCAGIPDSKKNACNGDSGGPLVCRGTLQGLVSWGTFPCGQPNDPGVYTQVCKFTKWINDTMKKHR
Sequence of Disintegrin and metalloproteinase domain-containing protein 17 (P78536 whole entry, the tested form may be a part): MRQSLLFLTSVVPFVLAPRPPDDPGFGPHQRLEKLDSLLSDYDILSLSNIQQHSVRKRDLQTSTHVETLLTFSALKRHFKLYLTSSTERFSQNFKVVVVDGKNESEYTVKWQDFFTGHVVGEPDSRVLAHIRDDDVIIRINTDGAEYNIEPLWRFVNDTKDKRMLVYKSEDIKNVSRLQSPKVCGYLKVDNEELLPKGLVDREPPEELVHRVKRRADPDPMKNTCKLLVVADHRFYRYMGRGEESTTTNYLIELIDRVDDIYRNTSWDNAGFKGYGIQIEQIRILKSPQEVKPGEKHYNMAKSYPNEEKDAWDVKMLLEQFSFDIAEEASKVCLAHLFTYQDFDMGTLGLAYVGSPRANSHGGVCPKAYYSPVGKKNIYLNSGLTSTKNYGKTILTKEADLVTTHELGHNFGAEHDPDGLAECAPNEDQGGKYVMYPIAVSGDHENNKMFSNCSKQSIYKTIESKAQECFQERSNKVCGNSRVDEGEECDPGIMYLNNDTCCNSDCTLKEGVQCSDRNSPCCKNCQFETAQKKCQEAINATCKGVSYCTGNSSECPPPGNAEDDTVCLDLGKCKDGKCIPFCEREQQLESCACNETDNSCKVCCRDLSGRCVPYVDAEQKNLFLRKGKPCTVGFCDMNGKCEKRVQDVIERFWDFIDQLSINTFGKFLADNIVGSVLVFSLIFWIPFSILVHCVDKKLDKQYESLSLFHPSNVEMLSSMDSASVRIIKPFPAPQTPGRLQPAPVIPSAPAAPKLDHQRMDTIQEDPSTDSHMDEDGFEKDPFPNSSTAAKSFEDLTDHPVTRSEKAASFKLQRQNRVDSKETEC

For COc1ccccc1N(C)S(=O)(=O)c1ccc(C(=O)Nc2ccc(C(N)=O)cc2)cc1, the EC50 (Kallikrein-7) was 15.8 µM (inactive).

For CC1(Cc2cccc(C#N)c2)C(=O)Nc2ccc(-c3cccc(C(F)(F)F)c3)cc21 (centres undefined), the EC50 (HEK293 [1]) was > 59.7 µM (inactive), the IC50 [2] was > 69.5 µM (inactive) and the IC50 [3] was 8.9 µM (active). The EC50 (HEK293 [4]) was > 59.7 µM (inactive).

For Cc1ccccc1-c1ccc2c(c1)O[C@H](CN(C)C(=O)Nc1ccc(C(F)(F)F)cc1)[C@H](C)CN([C@@H](C)CO)S2(=O)=O, the AC50 (Paired box protein Pax-8) was 9.3 µM (active), the AC50 [5] was < 0.26 µM (active) and the AC50 [6] was 42.5 µM (active). For the same compound, the AC50 [7] was 44.3 µM (active).

In the case of C[C@H](CO)N1C[C@H](C)[C@H](CN(C)S(=O)(=O)c2ccccc2)OCCCC[C@H](C)Oc2ccc(NS(=O)(=O)c3ccc(Cl)cc3)cc2C1=O, the AC50 [8] is reported as 3.41 µM (active), the AC50 (Paired box protein Pax-8) is reported as 10.1 µM (active) and the AC50 [5] is reported as 6.87 µM (active).

For O=C(C1CCN(c2ccc(F)cn2)CC1)N(CC1CC1)c1ccc(Cl)cc1, the IC50 [9] was 9 µM (active), the IC50 [10] was 0.0241 µM (active) and the IC50 (Vasopressin V1b receptor) was 20.5 µM (inactive). The IC50 (Vasopressin V2 receptor) was 24.3 µM (inactive).

In the case of COCCN(C(=O)N1CCN(c2ccccc2C)CC1)c1ccc(OC)cc1, the IC50 [9] is reported as 1 µM (active), the IC50 [10] is reported as 0.1 µM (active) and the IC50 (Vasopressin V1b receptor) is reported as 29.3 µM (inactive). For the same compound, the IC50 (Vasopressin V2 receptor) was 19.6 µM (inactive).

For O=C1C(O)=C([C@H]2CC[C@H](c3ccc(Cl)cc3)CC2)C(=O)c2ccccc21 [ATOVAQUONE], the IC50 [11] was 0.368 µM (active), the IC50 [12] was 0.0946 µM (active) and the IC50 [13] was > 10 µM (inactive). The IC50 [14] was > 10 µM (inactive), the IC50 [15] was 0.176 µM (active) and the IC50 [16] was 0.411 µM (active). The IC50 [17] was 0.0838 µM (active), the IC50 [18] was 0.138 µM (active) and the IC50 [19] was 0.114 µM (active).
